Reference: ChEMBL document CHEMBL3046274, “Toxicity of imidacloprid to developmental stages of Rhynchophorus ferrugineus (Curculionidae: Coleoptera): Laboratory and field tests” (Crop Prot, 2006)

What was measured:
Assay type in all cases: functional
[1] = tested on: Rhynchophorus ferrugineus; assay: Pesticidal activity against adult Rhynchophorus ferrugineus (red palm weevil) assessed as time required for 100% mortality at 1.5 ml/l administered topically
[2] = tested on: Rhynchophorus ferrugineus; assay: Pesticidal activity Rhynchophorus ferrugineus (red palm weevil) larvae assessed as time required after hatching for 100% mortality at 3.5 ml/l administered topically measured up to 14 days relative to control
[3] = tested on: Rhynchophorus ferrugineus; assay: Contact toxicity against Rhynchophorus ferrugineus (red palm weevil) adults assessed as time required for 50% mortality at 1.5 ml/l for 5 min
[4] = tested on: Rhynchophorus ferrugineus; assay: Pesticidal activity against Rhynchophorus ferrugineus (red palm weevil) cocoon assessed as mortality at 2 ppm administered by dipping for 3 min measured at 24 hr post-treatment relative to control
[5] = tested on: Rhynchophorus ferrugineus; assay: Pesticidal activity against Rhynchophorus ferrugineus (red palm weevil) cocoon assessed as mortality at 1 ppm administered by dipping for 3 min measured at 72 hr post-treatment relative to control
[6] = tested on: Rhynchophorus ferrugineus; assay: Contact toxicity against Rhynchophorus ferrugineus (red palm weevil) adults assessed as time required for 50% reversible knockdown at 2.5 ml/l for 5 min
[7] = tested on: Rhynchophorus ferrugineus; assay: Pesticidal activity against Rhynchophorus ferrugineus (red palm weevil) cocoon assessed as mortality at 1.5 ppm administered by dipping for 3 min measured at 90 hr post-treatment relative to control
[8] = tested on: Rhynchophorus ferrugineus; assay: Pesticidal activity against Rhynchophorus ferrugineus (red palm weevil) larvae assessed as mortality at 0.5 ppm, po at 90 hr post-treatment relative to control
[9] = tested on: Rhynchophorus ferrugineus; assay: Pesticidal activity against Rhynchophorus ferrugineus (red palm weevil) larvae infested date palm tree assessed as mortality at 20 ml/4l of water applied through soil-drench irrigation measured after 3 weeks relative to control
[10] = tested on: Rhynchophorus ferrugineus; assay: Pesticidal activity against Rhynchophorus ferrugineus (red palm weevil) cocoons assessed as time required for total mortality at 1.5 ml/l administered by dipping for 5 secs
[11] = tested on: Rhynchophorus ferrugineus; assay: Pesticidal activity against Rhynchophorus ferrugineus (red palm weevil) larvae assessed as mortality at 0.5 ppm, po at 114 hr post-treatment relative to control
[12] = tested on: Rhynchophorus ferrugineus; assay: Pesticidal activity against adult Rhynchophorus ferrugineus (red palm weevil) assessed as mortality at 1.5 ppm, po at 48 hr post-treatment relative to control
[13] = tested on: Rhynchophorus ferrugineus; assay: Pesticidal activity against adult Rhynchophorus ferrugineus (red palm weevil) assessed as mortality at 500 ppm administered topically at 48 hr post-treatment
[14] = tested on: Rhynchophorus ferrugineus; assay: Contact toxicity against Rhynchophorus ferrugineus (red palm weevil) adults assessed as time required for 100% reversible knockdown at 2.5 ml/l for 2 min
[15] = tested on: Rhynchophorus ferrugineus; assay: Pesticidal activity against Rhynchophorus ferrugineus (red palm weevil) larvae assessed as mortality at 0.5 ppm, po at 48 hr post-treatment relative to control
[16] = tested on: Rhynchophorus ferrugineus; assay: Pesticidal activity against Rhynchophorus ferrugineus (red palm weevil) larvae assessed as mortality at 1.5 ppm, po at 24 hr post-treatment relative to control
[17] = tested on: Rhynchophorus ferrugineus; assay: Pesticidal activity against adult Rhynchophorus ferrugineus (red palm weevil) assessed as mortality at 1 ppm, po at 114 hr post-treatment relative to control
[18] = tested on: Rhynchophorus ferrugineus; assay: Pesticidal activity against Rhynchophorus ferrugineus (red palm weevil) cocoons assessed as time required for total mortality at 2.5 ml/l administered by dipping for 10 secs
[19] = tested on: Rhynchophorus ferrugineus; assay: Pesticidal activity against Rhynchophorus ferrugineus (red palm weevil) larvae assessed as mortality at 6 ppm, po at 18 hr post-treatment relative to control
[20] = tested on: Rhynchophorus ferrugineus; assay: Pesticidal activity against Rhynchophorus ferrugineus (red palm weevil) cocoon assessed as mortality at 4 ppm administered by dipping for 3 min measured at 48 hr post-treatment relative to control
[21] = tested on: Rhynchophorus ferrugineus; assay: Pesticidal activity against Rhynchophorus ferrugineus (red palm weevil) cocoon assessed as mortality at 2 ppm administered by dipping for 3 min measured at 90 hr post-treatment relative to control
[22] = tested on: Rhynchophorus ferrugineus; assay: Pesticidal activity against Rhynchophorus ferrugineus (red palm weevil) cocoon assessed as mortality at 4 ppm administered by dipping for 3 min measured at 114 hr post-treatment relative to control
[23] = tested on: Rhynchophorus ferrugineus; assay: Contact toxicity against Rhynchophorus ferrugineus (red palm weevil) adults assessed as time required for 50% reversible knockdown at 2.5 ml/l for 2 min
[24] = tested on: Rhynchophorus ferrugineus; assay: Pesticidal activity against adult Rhynchophorus ferrugineus (red palm weevil) assessed as time required for reversible knockdown at 2.5 ml/l administered topically
[25] = tested on: Rhynchophorus ferrugineus; assay: Pesticidal activity against adult Rhynchophorus ferrugineus (red palm weevil) assessed as mortality at 0.5 ppm, po at 24 hr post-treatment relative to control
[26] = tested on: Rhynchophorus ferrugineus; assay: Pesticidal activity against adult Rhynchophorus ferrugineus (red palm weevil) assessed as mortality at 300 ppm administered topically at 72 hr post-treatment
[27] = tested on: Rhynchophorus ferrugineus; assay: Pesticidal activity against adult Rhynchophorus ferrugineus (red palm weevil) assessed as time required for 100% mortality at 3.5 ml/l administered topically
[28] = tested on: Rhynchophorus ferrugineus; assay: Contact toxicity against Rhynchophorus ferrugineus (red palm weevil) adults assessed as time required for 50% mortality at 2.5 ml/l for 5 min
[29] = tested on: Rhynchophorus ferrugineus; assay: Pesticidal activity against Rhynchophorus ferrugineus (red palm weevil) larvae assessed as mortality at 2 ppm, po at 90 hr post-treatment relative to control
[30] = tested on: Rhynchophorus ferrugineus; assay: Pesticidal activity against Rhynchophorus ferrugineus (red palm weevil) cocoon assessed as mortality at 0.5 ppm administered by dipping for 3 min measured at 24 hr post-treatment relative to control
[31] = tested on: Rhynchophorus ferrugineus; assay: Pesticidal activity against Rhynchophorus ferrugineus (red palm weevil) larvae assessed as mortality at 1 ppm, po at 24 hr post-treatment relative to control
[32] = tested on: Rhynchophorus ferrugineus; assay: Pesticidal activity against Rhynchophorus ferrugineus (red palm weevil) larvae assessed as mortality at 1 ppm, po at 90 hr post-treatment relative to control
[33] = tested on: Rhynchophorus ferrugineus; assay: Contact toxicity against Rhynchophorus ferrugineus (red palm weevil) adults assessed as time required for 50% reversible knockdown at 3.5 ml/l for 5 min
[34] = tested on: Rhynchophorus ferrugineus; assay: Pesticidal activity against Rhynchophorus ferrugineus (red palm weevil) cocoons assessed as mortality at 3.5 ml/l administered by dipping for 3 min measured within 3 days
[35] = tested on: Rhynchophorus ferrugineus; assay: Pesticidal activity against adult Rhynchophorus ferrugineus (red palm weevil) assessed as mortality at 500 ppm administered topically at 72 hr post-treatment
[36] = tested on: Rhynchophorus ferrugineus; assay: Pesticidal activity against adult Rhynchophorus ferrugineus (red palm weevil) assessed as mortality at 300 ppm administered topically at 48 hr post-treatment
[37] = tested on: Rhynchophorus ferrugineus; assay: Pesticidal activity against Rhynchophorus ferrugineus (red palm weevil) cocoons assessed as time required for total mortality at 1.5 ml/l administered by dipping for 30 secs
[38] = tested on: Rhynchophorus ferrugineus; assay: Pesticidal activity against Rhynchophorus ferrugineus (red palm weevil) cocoon assessed as mortality at 0.5 ppm administered by dipping for 3 min measured at 90 hr post-treatment relative to control
[39] = tested on: Rhynchophorus ferrugineus; assay: Pesticidal activity against Rhynchophorus ferrugineus (red palm weevil) larvae assessed as mortality at 300 ppm administered topically at 72 hr post-treatment
[40] = tested on: Rhynchophorus ferrugineus; assay: Pesticidal activity against Rhynchophorus ferrugineus (red palm weevil) larvae assessed as mortality at 100 ppm administered topically at 18 hr post-treatment
[41] = tested on: Rhynchophorus ferrugineus; assay: Pesticidal activity against adult Rhynchophorus ferrugineus (red palm weevil) assessed as time required for 100% mortality at 2.5 ml/l administered topically
[42] = tested on: Rhynchophorus ferrugineus; assay: Pesticidal activity against Rhynchophorus ferrugineus (red palm weevil) larvae assessed as mortality at 0.5 ppm, po at 72 hr post-treatment relative to control

## O=[N+]([O-])/N=C1\NCCN1Cc1ccc(Cl)nc1 [IMIDACLOPRID]
[1]
  Time: 11.5 days
[2]
  Time: 4 days
[3]
  Time: 4.3 days
[4]
  Activity: 0%
[5]
  Activity: 0%
[6]
  Time: 1.1 days
[7]
  Activity: 44.4%
[8]
  Activity: 66.7%
[9]
  Activity: 61.9%
[10]
  Time: 14.5 days
[11]
  Activity: 100%
[12]
  Activity: 73.2%
[13]
  Activity: 72.2%
[14]
  Time: 7.1 days
[15]
  Activity: 38.9%
[16]
  Activity: 100%
[17]
  Activity: 72.2%
[18]
  Time: 9.6 days
[19]
  Activity: 100%
[20]
  Activity: 44.4%
[21]
  Activity: 72.2%
[22]
  Activity: 72.2%
[23]
  Time: 1.1 days
[24]
  Time: 2 days
[25]
  Activity: 0%
[26]
  Activity: 100%
[27]
  Time: 6.1 days
[28]
  Time: 3.2 days
[29]
  Activity: 100%
[30]
  Activity: 0%
[31]
  Activity: 0%
[32]
  Activity: 100%
[33]
  Time: 1.1 days
[34]
  Activity: 76.7%
[35]
  Activity: 72.2%
[36]
  Activity: 72.2%
[37]
  Time: 9.6 days
[38]
  Activity: 38.9%
[39]
  Activity: 38.9%
[40]
  Activity: 0%
[41]
  Time: 8.8 days
[42]
  Activity: 38.9%
